From patent US20040175448A1, “Pharmaceutical compositions” (Mars, Incorporated, priority 1994, published 2004)

Experiment: Rancimat oxidative stability test of peanut oil
Conditions: Rancimat 100° C., 20 cc/min air, average of duplicate
Excerpt: The procedures described in Examples 1, 2 and 3 were used to prepare cocoa extracts which were manipulated further to produce two fractions from gel permeation chromatography. These two fractions are actually combined fractions A through C, and D and E (See FIG. 1) whose antioxidant properties were compared against the synthetic antioxidants BHA and BHT.
Peanut Oil was pressed from unroasted peanuts after the skins were removed. Each test compound was spiked into the oil at two levels about 100 ppm and about 20 ppm, with the actual levels given in Table 7.50 μL of methanol solubilized antioxidant was added to each sample to aid in dispersion of the antioxidant. A control sample was prepared with 50 μL of methanol containing no antioxidant.
The samples were evaluated in duplicate, for oxidative stability using the Rancimat stability test at 100° C. and 20 cc/min of air. Experimental parameters were chosen to match those used with the Active Oxygen Method (AOM) or Swift Stability Test (Van Oosten et al., 1981). Results are reported in Table 8 as hours required to reach a peroxide level of 100 meq.

[1] = 20 ppm (actual 20-24 ppm, Table 7)
[2] = 100 ppm (actual 100-120 ppm, Table 7)

Q: Which “Oxidative stability of peanut oil: hours required to reach a peroxide level of 100 meq” value (from here on “Oxidative stability of peanut oil”) [1] does the source give for COc1ccc(O)c(C(C)(C)C)c1 [BHA, Butylated Hydroxyanisole] here?
A: 13.5 ± 2.1 h

Q: What about the “Oxidative stability of peanut oil” value [2] of the same molecule?
A: 14.0 ± 1.4 h

Q: With Cc1cc(C(C)(C)C)c(O)c(C(C)(C)C)c1 [BHT, Butylated Hydroxytoluene] as the molecule, how does the “Oxidative stability of peanut oil” value [1] read?
A: 16.5 ± 2.1 h

Q: And the “Oxidative stability of peanut oil” value [2]?
A: 12.5 ± 2.1 h
